Read-outs that look alike come from different tables or passages of the source.
What was measured:
[1] = test system: chronically injured spinal cord of guinea pigs; settings: cited from earlier work
[2] = cited from earlier work; for bioavailability: AUC(0-∞) i.v. vs p.o. 2 mg/kg
[3] = test system: patients with multiple sclerosis; test: MS-F202 Phase 2 double-blind placebo-controlled dose-comparison study; assay type: in vivo, human; set-up: change in overall Ashworth score, Mean: scale not given here
Protocol: The Phase 2, dose-ranging study (MS-F202) was a double-blind, randomized, placebo-controlled, parallel group study with dose levels of 4-aminopyridine-SR of 10 mg, 15 mg or 20 mg b.i.d. Patients were titrated to their randomized dose over two weeks; and the fixed-dose treatment phase was 12 weeks in duration. The prospectively defined primary efficacy variable was the percent change from baseline in average walking speed on the T25FW over the last three visits on the assigned stable dose. Other secondary efficacy variables were the other MSFC assessments (9-hole peg test and PASAT 3″), MSFC combined score, LEMMT, the 12-item Multiple Sclerosis Walking Scale (MSWS-12), Multiple Sclerosis Quality of Life Inventory (MSQLI), Ashworth spasticity score, Clinician Global Impression (CGI), and Subject Global Impression (SGI).
In the study MS-F202, the primary efficacy variable was the percent change from baseline in average walking speed measured using the T25FW. The following sections provide details on the different assessments.
A total of 206 patients with multiple sclerosis were randomized and 195 completed treatment (50/52 on 4-aminopyridine-SR 10 mg b.i.d., 49/50 on 15 mg b.i.d., 51/57 on 20 mg b.i.d. and 45/47 on placebo). The prospectively defined primary efficacy variable was the percent change from baseline in average walking speed on the T25FW over the last three visits on the assigned dose (Visits 7-9, the post-titration, stable dose period). The secondary efficacy variable was response, defined as a 20% or greater improvement in walking speed during the 12-week stable-dose double-blind treatment period (i.e. measurements at Visits 7-9). Other secondary efficacy variables were the other MSFC assessments (9-hole peg test and PASAT 3″), MSFC combined score, LEMMT, MSWS-12, MSQLI, Ashworth spasticity score, CGI, and SGI.
This example provides an embodiment of a method of treating subjects with a sustained release 4-aminopyridine formulation and a Responder analysis of the present invention. This was a Phase 2, double-blind, placebo-controlled, parallel group, 20-week treatment study in 206 subjects diagnosed with multiple sclerosis. This study was designed to investigate the safety and efficacy of three dose levels of 4-aminopyridine-SR, 10 mg b.i.d., 15 mg b.i.d., and 20 mg b.i.d. in subjects with clinically definite multiple sclerosis. The primary efficacy endpoint was an increase, relative to baseline, in walking speed, on the Timed 25 Foot Walk. Secondary efficacy measurements included lower extremity manual muscle testing in four groups of lower extremity muscles (hip flexors, knee flexors, knee extensors, and ankle dorsiflexors); the 9-Hole Peg Test and Paced Auditory Serial Addition Test (PASAT 3″); the Ashworth score for spasticity; Spasm Frequency/Severity scores; as well as a Clinician's (CGI) and Subject's (SGI) Global Impressions, a Subject's Global Impression (SGI), the Multiple Sclerosis Quality of Life Inventory (MSQLI) and the 12-Item Multiple Sclerosis Walking Scale (MSW S-12).
At the first visit (Visit 0), subjects were to enter into a two-week single-blind placebo run-in period for the purpose of establishing baseline levels of function. At Visit 2 subjects were to be randomized to one of four treatment groups (Placebo or 4-aminopyridine-SR 10 mg, 15 mg, 20 mg) and begin two weeks of double-blind dose-escalation in the active drug treatment groups (B, C and D). Group A were to receive placebo throughout the study. Subjects in the 10 mg (Group B) arm of the study took a dose of 10 mg approximately every 12 hours during both weeks of the escalation phase. The 15 mg (Group C) and 20 mg (Group D) dose subjects took a dose of 10 mg approximately every 12 hours during the first week of the escalation phase and titrated up to 15 mg b.i.d. in the second week. Subjects were to be instructed to adhere to an “every 12 hour” dosing schedule. […]

[4] = test system: patients with multiple sclerosis; test: MS-F204EXT open-label extension study; assay type: in vivo, human; settings: cut-off Jul. 31, 2008
Protocol: Data were presented by study pair (parent and extension).
In the MS-F204EXT study, which allowed patients to enroll directly from the parent study MS-F204, open label 4-aminopyridine-SR 10 mg b.i.d. was dispensed at visit 0 (a separate screening visit was only required if the screening visit could not be combined with the Final visit for MS-F204); visit 1 was scheduled to occur two weeks after screening visit (or visit 0), visit 2 at 12 weeks after visit 1, visit 3 at 12 weeks after visit 2. The planned interval between subsequent visits was 26 weeks. Therefore, at visit 4, a patient should have been on 4-aminopyridine-SR treatment for approximately one year.
This Example considers efficacy data collected from the three ongoing, open label extension studies (MS-F202EXT, MS-F203EXT, MS-F204EXT). The primary focus was the Timed 25-Foot Walk, assessed in a manner consistent with its evaluation in the parent double-blind studies. This included the determination of response to treatment using a criterion equivalent to the Timed Walk Response criterion used in the parent studies. […] The clinical meaningfulness of this criterion was evaluated in terms of the Subject and Clinician Global Impression scores recorded during the extension studies.
In the extension studies, a “Timed Walk Extension Responder” was defined as a patient who achieved a faster walking speed on the T25FW for the majority of on-drug treatment visits during the first year of the study (Visits 1-4 for MS-F203EXT and MS-F204EXT) than the maximum walking speed previously measured for the patient during any off-drug visits in either the parent study or in the extension study.

[5] = Bioavailability and pharmacokinetics in healthy volunteers; settings: 10 mg oral solution
[6] = Fampridine Non-responders, 1st stbl
[7] = Fampridine Non-responders, 2nd stbl
[8] = Fampridine Non-responders, 3rd stbl
[9] = Fampridine Non-responders, titration
[10] = Fampridine Responders, 1st stbl
[11] = Fampridine Responders, 2nd stbl
[12] = Fampridine Responders, 3rd stbl
[13] = Fampridine Responders, titration

Nc1ccncc1 [4-aminopyridine]
most effective concentration [1]: about 10 μM | bioavailability ([2]; female rats): ~55% | bioavailability ([2]; male rats): approximately 66.5% | peak plasma concentrations lower in females than in males ([2]; oral administration): 38% | rate of serious AE's ([3]; 10 mg bid): 0% | rate of serious AE's ([3]; 15 mg bid): 10% | rate of serious AE's ([3]; 20 mg bid): 12% | mean reduction from baseline in Overall Ashworth Score, range over visits ([3]; 4-aminopyridine Responders, double-blind): −0.18 to −0.11 units | change in overall Ashworth score, Mean [3, 6]: −0.08 | percent change in LEMMT, Mean [3, 6]: 0.10 | percent change in Walking Speed, Mean [3, 6]: 3.5 | change in overall Ashworth score, Mean [3, 7]: −0.07 | percent change in LEMMT, Mean [3, 7]: 0.09 | percent change in Walking Speed, Mean [3, 7]: −0.2 | change in overall Ashworth score, Mean [3, 8]: 0.00 | percent change in LEMMT, Mean [3, 8]: 0.10 | percent change in Walking Speed, Mean [3, 8]: −6.5 | change in overall Ashworth score, Mean [3, 9]: −0.16 | percent change in LEMMT, Mean [3, 9]: 0.12 | percent change in Walking Speed, Mean [3, 9]: 8.3 | change in overall Ashworth score, Mean [3, 10]: −0.18 | percent change in LEMMT, Mean [3, 10]: 0.09 | percent change in Walking Speed, Mean [3, 10]: 24.6 | change in overall Ashworth score, Mean [3, 11]: −0.11 | percent change in LEMMT, Mean [3, 11]: 0.09 | percent change in Walking Speed, Mean [3, 11]: 29.0 | change in overall Ashworth score, Mean [3, 12]: −0.18 | percent change in LEMMT, Mean [3, 12]: 0.17 | percent change in Walking Speed, Mean [3, 12]: 27.3 | change in overall Ashworth score, Mean [3, 13]: −0.14 | percent change in LEMMT, Mean [3, 13]: 0.18 | percent change in Walking Speed, Mean [3, 13]: 27.4 | post hoc Responder rate (consistently faster walking speeds on drug) ([3]; combined/pooled 4-aminopyridine-SR groups): approximately 37% | patients classified as Extension Timed Walk Responders ([4]; all patients): 49.3% | patients classified as Extension Timed Walk Responders ([4]; parent-study treated Timed Walk Non-Responders): 30.0% | patients classified as Extension Timed Walk Responders ([4]; parent-study treated Timed Walk Responders): 71.4% | patients classified as Extension Timed Walk Responders ([4]; placebo-treated in parent study): 50.0% | Cmax [5]: 42.7 ng/mL
